System: TC-1 luc tumors
Assay: TC-1 luc tumor model with E7 RNA-LPX and cisplatin chemotherapy: tumor growth and survival
Type: in vivo, C57BL/6 mice
Settings: 40 μg RNA-LPX day 16, 80 μg cisplatin or PBS i.p. day 22 and 28
Procedure: For therapeutic tumor experiments, C57BL/6 mice were injected with 1×10^5 TC-1 or TC-1 luc tumor cells and 5×10^5 C3 tumor cells subcutaneously into to the right flank. Tumor growth was measured unblinded with a caliper every three to four days and tumor volumes calculated by (a^2 x b)/2 (a, width; b, length). Mice were immunized intravenously with 40 μg E7 or control (OVA) RNA-LPX. Arrows in vaccination schemes indicate immunization. Mice were randomized according to their tumor size prior RNA-LPX immunization. The orthovoltage X-ray source XRAD320 (Precision X-Ray Inc.) was used for tumor irradiation, irradiating tumors locally with different doses at a dose rate of 0.47 Gy/min. Biological effective doses were calculated using the formula
In some experiments, mice received 80 μg cisplatin chemotherapy or PBS intraperitoneal (i.p.) twice after RNA-LPX vaccination.
For Example 9, Statistical analysis was performed with GraphPad PRISM 9. For tumor growth analysis, two-way analysis of variance (ANOVA) was performed and when determined significant (p<0.05), Tukey's multiple comparison test run.

In the case of `N.N.[Cl][Pt][Cl]` [Cisplatin, cis-diamminedichloroplatinum (II)], the tumor growth is reported as “only slightly improved tumor growth”.

From patent US12599660B2, “Therapeutic RNA for HPV-positive cancer” (priority 2020, dated 2026)
